{
  "source": "patent US8211463B2",
  "about": "“Use of glycolipids as adjuvants” (Helmholtz-Zentrum Fuer Infektionsforschung GmbH, priority 2006, dated 2012)",
  "tested_on": "IFN-γ, IL-2, IL-4, IL-5, and TNFα",
  "assay": "Cytometric bead array of cytokines in supernatants of restimulated spleen cells",
  "assay_type": "in vivo, Balb/c mice",
  "conditions": "i.n., 10 μg glycolipid, restimulation with β-Gal antigen for 4 days",
  "protocol": "Co-administration of β-Gal with 10 μg glycolipid 5 represented both Th1 and Th2 cytokine profiles activities in Balb/c mice. 10 days after the final immunization, the immunized Balb/c mice were sacrificed. A total of 5×10^6 cells/ml were stimulated with different concentrations of the β-Gal antigen for 4 days, and the levels of IFNγ and IL-4 in the supernatant were examined by the BD Cytometric bead array. Cytokine production of the spleen cells were analyzed using BD CBA kit according to the manufacturer's instructions. […] Curves represent cytokine concentration (pg/ml) and Stimulation index (SI) in response to enhanced antigen concentration in each group. Each group consists of five mice. Data are representative of two separate experiments.\nTo characterize the type of Th response stimulated following immunization, the content of IFN-γ, IL-2, IL-4, IL-5, and TNFα was measured in supernatants from in vitro re-stimulated spleen cells (FIGS. 8 and 9) by the Cytometric Bead Array. Culture supernatants from proliferating cells were collected on days 2 and 4, and stored at −70° C. Determinations of IFN-γ, TNFα, IL-2, IL-4, and IL-5 were performed by cytometric bead array analysis using the commercial kit from BectonDickinson, according to the manufacturer's instructions. […] The probes were analyzed subsequently by flow cytometry as described in the protocol of BD.",
  "data": [
    {"compound": "CCCCCCCCCCCCCCOCC(COCCCCCCCCCCCCCC)O[C@@H]1O[C@H](CO)[C@@H](O[C@H]2O[C@H](CO)[C@@H](O)[C@H](O)[C@H]2O)[C@H](O)[C@H]1O", "note": "[glycolipid 5, 1,3-Di-O-tetradecyl-2-O-[4′-O-(α-D-glucopyranosyl)-β-D-glucopyranosyl]-sn-glycerol]", "values": [
      {"measurement": "expression of proinflammatory (TNFα), Th1 (IFNγ and IL-2) and Th2 (IL-5) cytokines by spleen cells", "result": "enhanced expression"}
    ]}
  ]
}
